Measured values: patent US7626044B2, “Triptolide derivatives and their uses” (priority 2002, dated 2009)
Values joined by “and” are separate entries in the source; they are usually repeats but may differ in a detail not shown here. Equal entries are not always repeated.

Key:
T lymphocyte = test: ConA induced T-lymphocyte proliferation ([3H]thymidine); type: cell-based, mouse; conditions: for Lymphocyte Proliferation (cpm) T cell: control 125789
Protocol: (§1) Mice were sacrificed by cervical dislocation, and spleens were collected under sterile conditions then teased through a nylon mesh. Erythrocytes were lysed. Cells were washed and resuspended at 5×10^6/ml in RPMI-1640 media containing 10% FBS. For one 96 well plate assay, 100 pt of cells, 50 μl of sample and 50 μl of ConA/LPS were added into each well with the final volume 200 μl. The control wells were set up with 50 μl of RPMI-1640 media instead of ConA/LPS.
(§2) Plates were incubated for 48 h (ConA) or 60 h (LPS), respectively, at 37° C., 5% CO2 in a humidified incubator. In the last 8 h of incubation, 25 μl (1.9×10^10 Bq) of [^3H]thymidine was added. After plates were incubated for 48 h, the plates (ConA) were stored at −20° C., then after another 12 h, the plates (LPS) were stored at −20° C.
(§3) At the end of incubation, pulsed cells were harvested on a glass filter using a cell harvester ([…]96®, TOMTEC) and allowed to dry. Incorporation of radioactive thymidine was determined by using liquid Scintillation and Luminescence Counters (MicroBeta Trilux®, PerkinElmer).

B lymphocyte = test: LPS induced B-lymphocyte proliferation ([3H]thymidine); type: cell-based, mouse; conditions: for Lymphocyte Proliferation (cpm) B cell: control 87373
Protocol: as §1, §2, §3

lymphocyte = test: MTT cytotoxic assay; type: cell-based, mouse; conditions: for Cytotoxicity OD Value: control 0.337
Protocol: (§4) Mice were sacrificed by cervical dislocation, and spleens were collected under sterile conditions then teased through a nylon mesh. Erythrocytes were lysed. Cells were washed and resuspended at 5×10^6/ml in RPMI-1640 media supplemented with 10% FBS.
(§5) For one 96 well plate assay, 90 μl of cells, 45 μl of sample and 45 μl of RPMI-1640 media with 10% FBS were added into each well with the final volume 180 μl. The negative control wells (containing 90 μl of RPMI-1640 media with 10% FBS and 90 pt of cells), blank control (180 μl of RPMI-1640 media with 10% FBS) were also performed. Incubate plate for 48 hours at 37° C., 5% CO2 in a humidified incubator. 18 μl of MTT solution (5 mg/ml) was added for 6-7 h.
(§6) 90 μl of MTT lysis solution was added to each well followed by a further incubation at 37° C. for 6-7 h. And the absorbance was measured at 570 nm using a plate reader.

MTT cytotoxic assay = type: cell-based, mouse; conditions: mouse; restated; read-out: IC50 (lymphocyte cytotoxicity, restated)
Protocol: as §4, §5, §6

[1] = Acute toxicity (LD50) test in mice, intraperitoneal injection; type: in vivo, mouse; conditions: mouse, in vivo, ip; mice, single intraperitoneal injection, 14 days, Bliss' method
Protocol: Mice were single administered with LLDT-8 by intraperitoneal injection, and observed for clinical signs of toxicity immediately and the following 14 days. Necropsy was performed on all animals that died and on all survivors at the end of the 2-week study. Death was seen from the next day after treatment and reached a peak at the 2-4 day. All gross pathological changes should be recorded for each animal. There was no gender difference in survival.
LLDT-8 is much less toxic than its parent compound, […].

[2] = test system: DNFB-induced mouse DTH response; test: DNFB-induced mouse delayed type hypersensitivity response (DTH); type: in vivo; conditions: Balb/c mice
Protocol: Female Balb/c mice (age of 6-8 wk) were randomly divided into groups and immunized with 20 μl 0.5% DNFB solution in absolute acetone-olive oil (4:1) on each hind foot on day 0 and 1;
7-9 days after the initial immunization, mice were boosted with 10 μl 0.4% DNFB on both sides of the left ear, whereas the right ear was treated with vehicle alone;
Compounds were administered intraperitoneally (i.p.) or orally (p.o.) to the mice 1 h before DNFB booster immunization and 12 h later.
Ear swelling and other indexes were assessed 24-48 h after booster immunization.
Note: Female ICR mice (age of 6-8 wk) were immunized with 0.7% DNFB solution and boosted with 0.6% DNFB solution.

Row | Structure (SMILES) | melting point | Lymphocyte Proliferation (cpm) T cell (T lymphocyte; 10^−6 M) [cpm] | Lymphocyte Proliferation (cpm) T cell (T lymphocyte; 10^−7 M) [cpm] | Lymphocyte Proliferation (cpm) T cell (T lymphocyte; 10^−8 M) [cpm] | Lymphocyte Proliferation (cpm) B cell (B lymphocyte; 10^−6 M) [cpm] | Lymphocyte Proliferation (cpm) B cell (B lymphocyte; 10^−7 M) [cpm] | Lymphocyte Proliferation (cpm) B cell (B lymphocyte; 10^−8 M) [cpm] | Cytotoxicity OD Value (lymphocyte; 10^−6 M) | Cytotoxicity OD Value (lymphocyte; 10^−7 M) | Cytotoxicity OD Value (lymphocyte; 10^−8 M) | further results
1 | CC(C)[C@]12O[C@H]1[C@@H]1O[C@]13[C@]1(O[C@H]1C[C@H]1C4=C(CC[C@@]13C)C(=O)OC4)[C@@H]2O [LLDT-2, triptolide] | – | – | – | – | – | – | – | – | – | – | ED50 for inhibiting T lymphocyte proliferation induced by ConA (T lymphocyte; 48 h): 2.44 ng/mL; EC50 (T lymphocyte; Mus musculus, T-lymphocyte, 48 h, read-out: ED50 for inhibiting T lymphocyte proliferation induced by ConA): 6.8 nM; ED50 for inhibiting B lymphocyte proliferation induced by LPS (B lymphocyte; 60 h): 2.38 ng/mL; EC50 (B lymphocyte; Mus musculus, Lymphocyte, 60 h, read-out: ED50 for inhibiting B lymphocyte proliferation induced by LPS): 6.6 nM; IC50 (lymphocyte; Lymphocyte, read-out: IC50 (concentration required to reduce the viability of cells by 50%), mouse spleen cells, 48 hours, MTT): 0.00074 µg/mL and 2 nM; IC50 (MTT cytotoxic assay): 2 nM; LD50 at 14 days [1]: 0.5 mg/kg; Body weight after i.p. ([2]; Table 8, i.p., dosage 40 (mg/kg), control 21.9): 21.2 g; Body weight before i.p. ([2]; Table 8, i.p., dosage 40 (mg/kg), control 22.4): 21.5 g; Ear swelling X ± SD ([2]; Table 8, i.p., dosage 40 (mg/kg), control 22.7 ± 2.1): 17.7 ± 5.7 mg; Right ear ([2]; Table 8, i.p., dosage 40 (mg/kg), control 26.4): 30.2 mg; Left ear ([2]; Table 8, i.p., dosage 40 (mg/kg), control 49.1): 47.9 mg; Spleen ([2]; Table 8, i.p., dosage 40 (mg/kg), control 154.0): 151.4 mg; Body weight after (i.p.) ([2]; Table 9, p.o., dosage 0.2 mg/kg, control 19): 20 g; Body weight before (i.p.) ([2]; Table 9, p.o., dosage 0.2 mg/kg, control 20): 21 g; Ear swelling ([2]; Table 9, p.o., dosage 0.2 mg/kg, control 23.4): 16.7 mg; Right ear ([2]; Table 9, p.o., dosage 0.2 mg/kg, control 25.9): 24.5 mg; Left ear ([2]; Table 9, p.o., dosage 0.2 mg/kg, control 49.3): 41.2 mg; Spleen ([2]; Table 9, p.o., dosage 0.2 mg/kg, control 125.8): 127.0 mg
2 | CC(C)[C@]12O[C@H]1[C@@H]1O[C@@]13[C@@]1(C)CCC4=C(COC4=O)C1=C[C@@H]1O[C@@]13C2=O [LLDT-15, Δ^5,6-dehydrotriptonide] | 242 to 244 °C (dec.) | 10296 | 63914 | 69613 | 30889 | 85240 | 77139 | 0.156 | 0.316 | 0.327 | –
3 | CC(C)[C@]12O[C@H]1[C@@H]1O[C@@]13[C@@]1(C)CCC4=C(COC4=O)[C@@]14O[C@H]4[C@@H]1O[C@@]13C2=O [LLDT-16, (5R, 6S)-5,6-epoxytriptonide] | 252 to 254 °C (dec.) | 76204 | 75599 | 89029 | 80768 | 82285 | 71877 | 0.304 | 0.337 | 0.372 | –
4 | CC(C)[C@]12O[C@H]1[C@@H]1O[C@@]13[C@@]1(C)CCC4=C(COC4=O)[C@]1(O)[C@@H](O)[C@@H]1O[C@@]13C2=O [LLDT-17, cis-(5R, 6S)-5,6-dihydroxytriptonide] | 266 to 268 °C (dec.) | 84825 | 67561 | 74069 | 82861 | 76376 | 73969 | 0.310 | 0.355 | 0.334 | –
